According to article PMC6556873, “Rapid Covalent-Probe Discovery by Electrophile-Fragment Screening” (Journal of the American Chemical Society, 2019):
Like-named read-outs stand apart in the source and are kept apart here.

Experiments:
PCAF = target: T1, PCAF (Homo sapiens, UniProt Q92831); design: Intact protein LC/MS covalent labelling, fragments in pools of five, 200 uM each, 4 °C; conditions: 24 h, 4 °C, pool of five; 200 µM; covalent
T1 construct: gene KAT2B

BSA = target: T2, BSA (Bos taurus, UniProt P02769); design: Intact protein LC/MS covalent labelling, fragments in pools of five, 200 uM each, 4 °C; conditions: 24 h, 4 °C, pool of five; 200 µM; covalent
T2 construct: gene ALB

NUDT7 = target: T3, NUDT7 (Homo sapiens, UniProt P0C024); design: Intact protein LC/MS covalent labelling, fragments in pools of five, 200 uM each, 4 °C; conditions: 24 h, 4 °C, pool of five; 200 µM; covalent
T3 construct: residues 14-235, E. coli, pNIC28-Bsa4, N-terminal His6 tag removed by TEV, construct 26672 Da

OTUB2 (OTUB2A) = target: T4, OTUB2 (OTUB2A) (Homo sapiens, UniProt Q96DC9); design: Intact protein LC/MS covalent labelling, fragments in pools of five, 200 uM each, 4 °C; conditions: 24 h, 4 °C, pool of five; 200 µM; covalent
T4 construct: full length residues 1-234, E. coli BL21(DE3)-R3, His tag removed by TEV, construct 27312 Da
T4 sequence (Q96DC9 1-234): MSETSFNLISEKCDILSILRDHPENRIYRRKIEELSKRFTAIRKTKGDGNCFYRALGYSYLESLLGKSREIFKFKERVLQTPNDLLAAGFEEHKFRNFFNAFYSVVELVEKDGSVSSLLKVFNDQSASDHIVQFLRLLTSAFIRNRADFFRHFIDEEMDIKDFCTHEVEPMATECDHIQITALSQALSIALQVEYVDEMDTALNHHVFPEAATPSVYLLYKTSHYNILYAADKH

in vitro [1] = assay: in vitro; design: species or system CCD841, HEK293; conditions: human, hb2 cells, read-out: HB-2 Cells Viability (%)
in vitro [2] = assay: in vitro; design: species or system HB2, CCD841; conditions: human, hek293 cells
in vitro [3] = assay: in vitro; design: species or system HB2, HEK293; conditions: human, ccd841 cells

T3 sequence (P0C024 14-235): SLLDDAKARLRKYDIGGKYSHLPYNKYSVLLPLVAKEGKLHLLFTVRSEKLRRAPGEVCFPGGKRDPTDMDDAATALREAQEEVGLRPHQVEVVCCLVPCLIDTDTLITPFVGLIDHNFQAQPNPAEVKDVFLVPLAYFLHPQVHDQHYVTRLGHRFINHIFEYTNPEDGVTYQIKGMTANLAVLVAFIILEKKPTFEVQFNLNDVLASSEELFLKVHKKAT
T2 sequence (P02769 whole entry, the tested form may be a part): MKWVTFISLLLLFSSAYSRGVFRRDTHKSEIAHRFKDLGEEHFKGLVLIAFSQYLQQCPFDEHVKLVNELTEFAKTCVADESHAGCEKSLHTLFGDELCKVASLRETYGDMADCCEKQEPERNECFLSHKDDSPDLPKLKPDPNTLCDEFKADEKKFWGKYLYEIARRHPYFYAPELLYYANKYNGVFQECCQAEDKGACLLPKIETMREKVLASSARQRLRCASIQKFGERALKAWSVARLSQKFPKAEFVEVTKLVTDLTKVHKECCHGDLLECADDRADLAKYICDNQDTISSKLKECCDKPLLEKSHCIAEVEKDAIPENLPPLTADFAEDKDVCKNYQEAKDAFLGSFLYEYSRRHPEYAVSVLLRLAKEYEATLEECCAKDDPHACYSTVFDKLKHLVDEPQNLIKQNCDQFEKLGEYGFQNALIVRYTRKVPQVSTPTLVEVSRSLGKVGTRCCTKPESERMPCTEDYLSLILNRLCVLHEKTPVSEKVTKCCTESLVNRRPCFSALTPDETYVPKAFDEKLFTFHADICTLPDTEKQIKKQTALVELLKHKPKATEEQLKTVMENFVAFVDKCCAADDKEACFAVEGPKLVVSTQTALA
T1 sequence (Q92831 whole entry, the tested form may be a part): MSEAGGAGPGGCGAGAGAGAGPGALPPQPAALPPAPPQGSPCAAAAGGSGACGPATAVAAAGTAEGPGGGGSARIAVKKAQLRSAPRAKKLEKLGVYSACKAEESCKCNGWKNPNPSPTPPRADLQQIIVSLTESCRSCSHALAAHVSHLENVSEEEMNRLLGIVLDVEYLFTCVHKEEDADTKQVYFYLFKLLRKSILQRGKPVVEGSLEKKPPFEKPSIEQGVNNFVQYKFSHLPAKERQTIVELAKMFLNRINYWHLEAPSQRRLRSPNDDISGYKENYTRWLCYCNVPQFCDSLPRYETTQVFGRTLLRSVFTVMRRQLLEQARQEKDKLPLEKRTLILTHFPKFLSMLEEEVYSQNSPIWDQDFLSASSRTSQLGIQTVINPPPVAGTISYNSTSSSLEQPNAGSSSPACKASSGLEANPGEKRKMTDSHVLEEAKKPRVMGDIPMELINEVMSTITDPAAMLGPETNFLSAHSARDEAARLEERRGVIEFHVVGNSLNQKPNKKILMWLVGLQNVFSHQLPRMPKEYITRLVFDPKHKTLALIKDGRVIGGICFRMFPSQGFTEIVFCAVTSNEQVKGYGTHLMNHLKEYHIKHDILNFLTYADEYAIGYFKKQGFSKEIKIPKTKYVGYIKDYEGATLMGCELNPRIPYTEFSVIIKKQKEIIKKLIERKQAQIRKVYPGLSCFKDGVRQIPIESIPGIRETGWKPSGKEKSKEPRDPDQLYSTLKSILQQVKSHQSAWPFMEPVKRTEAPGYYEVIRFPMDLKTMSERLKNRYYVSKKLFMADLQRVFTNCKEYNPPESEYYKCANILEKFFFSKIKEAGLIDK

| Structure (SMILES) | PCAF (PCAF) | BSA (BSA) | NUDT7 (NUDT7) | OTUB2 (OTUB2 (OTUB2A)) | viability at 48 h, 10 µM (in vitro [1]) [%] | viability at 48 h, 10 µM (in vitro [2]) [%] | viability at 48 h, 10 µM (in vitro [3]) [%] |
| --- | --- | --- | --- | --- | --- | --- | --- |
| C=CC(=O)N1CCC(C(=O)c2ccc3c(c2)NC(=O)C(C)O3)CC1 (stereo not drawn) [PCM-0102524] | 0 | 0 | 0 | 0 | 103 | 80.6 | 99.7 |
| C=CC(=O)N1CCC(c2nc(C(F)(F)F)cs2)CC1 [PCM-0102525] | 0 | 0 | 0 | 0 | 95.8 | 96.6 | 128 |
| C=CC(=O)NC(C#N)C(C)C (stereo not drawn) [PCM-0102529] | 0 | 0 | 0 | 0 | 102 | 89.7 | 98.9 |
| C=CC(=O)Nc1cc(N)ccc1F [PCM-0102533] | 0 | 0 | 0 | 0 | 108 | 75.6 | 113 |
| CC(=O)N1CCN(C(=O)CCl)CC1 [PCM-0102535] | 0 | 0.2 | 0.06 | 0 | 85.7 | 37.6 | 82.8 |
| CC(C)(C)c1cc(NC(=O)CCl)n(-c2ccccc2)n1 [PCM-0102536] | 0 | 0 | 0 | 0.14 | 33.5 | 10.6 | 65.2 |
| C=CC(=O)Nc1ccc(Cl)cc1 [PCM-0102537] | 0 | 0 | 0.12 | 0 | 95.5 | 81.5 | 89.3 |
| Cc1ccc(N(C(=O)CCl)C2C=CS(=O)(=O)C2)cc1 (stereo not drawn) [PCM-0102539] | 0 | 0 | 0.33 | 0.16 | 23.3 | 4.7 | 31.5 |
| CC(C)(C)NC(=O)NC(=O)CCl [PCM-0102540] | 0 | 0 | 0 | 0 | 111 | 113 | 140 |
| COC(=O)c1c(NC(=O)CCl)sc2c1CCC2 [PCM-0102542] | 0 | 0 | 0.14 | 0 | 18.1 | 18.6 | 70.6 |
| C=CC(=O)Nc1cc(-c2ccnn2C)ccc1C [PCM-0102543] | 0 | 0 | 0 | 0 | 103 | 93.5 | 134 |
| O=C(CCl)Nc1cc([N+](=O)[O-])ccc1F [PCM-0102544] | 0 | 0 | 0 | 0.31 | 1.6 | 1.8 | 2.5 |
| CC1(C)C(=O)Nc2ccccc2N1C(=O)CCl [PCM-0102546] | 0 | 0 | 0.18 | 0.32 | 48 | 57.2 | 78.5 |
| N#CSc1ccc(NC(=O)CCl)c(F)c1 [PCM-0102548] | 0 | 0 | 0 | 0.09 | 19.2 | 55.2 | 26.5 |
| C=CC(=O)N1CCCc2ccccc21 [PCM-0102549] | 0 | 0 | 0 | 0 | 111 | 111 | 109 |
| O=C(CCl)N=c1sccn1Cc1ccccc1Cl [PCM-0102550] | 0 | 0 | 0.11 | 0 | 27.2 | 6 | 3.8 |
| C=CC(=O)Nc1ccc(N2CCOCC2)cc1 [PCM-0102551] | 0 | 0 | 0 | 0 | 99.9 | 82.5 | 113 |
| Cc1ccc(CN(C)C(=O)CCl)c(C)c1 [PCM-0102552] | 0 | 0 | 0.19 | 0 | 54.5 | 62.6 | 69.9 |
| CC(C)(O)CNC(=O)CCl [PCM-0102554] | 0 | 0 | 0 | 0 | 103 | 93.2 | 99.5 |
| C=CC(=O)N1CCC(n2cccn2)CC1 [PCM-0102555] | 0 | 0 | 0 | 0 | 102 | 109 | 104 |
| CC(c1ccc(Cl)cc1)N(C)C(=O)CCl (stereo not drawn) [PCM-0102556] | 0 | 0 | 0.39 | 0 | 4.9 | 3.1 | 11.5 |
| C=CC(=O)NCc1cnn2ccccc12 [PCM-0102561] | 0 | 0 | 0 | 0 | 108 | 95.2 | 124 |
| C=CC(=O)NC1CC(C)(C)OC1(C)C (stereo not drawn) [PCM-0102562] | 0 | 0 | 0 | 0 | 107 | 94.8 | 114 |
| C=CC(=O)NC1CCC2(CC1)OCCO2 [PCM-0102564] | 0 | 0 | 0 | 0 | 109 | 75.1 | 132 |
